Experiments:
Format in all cases: in vivo
Spodoptera littoralis = Spodoptera littoralis (Egyptian cotton leafworm) cotton leaf disc spray test; settings: foliar, 72 h, 200 ppm spray on cotton leaf discs, 5 L1 larvae, mortality, feeding behavior, growth regulation 3 days after treatment
Description: Spodoptera littoralis (Egyptian Cotton Leafworm) Cotton leaf discs were placed on agar in a 24-well microtiter plate and sprayed with test solutions at an application rate of 200 ppm. After drying, the leaf discs were infested with 5 L1 larvae. The samples were checked for mortality, feeding behavior, and growth regulation 3 days after treatment (DAT).

Heliothis virescens = Heliothis virescens (tobacco budworm) egg test on artificial diet; settings: 96 h, 200 ppm (concentration in well 18 ppm), eggs 0-24 h old on artificial diet, egg mortality, larval mortality, growth regulation after 4 days
Method: Heliothis virescens (Tobacco Budworm):
Eggs (0-24 h old) were placed in 24-well microtiter plate on artificial diet and treated with test solutions at an application rate of 200 ppm (concentration in well 18 ppm) by pipetting. After an incubation period of 4 days, samples were checked for egg mortality, larval mortality, and growth regulation. The following compound gave at least 80% control of Heliothis virescens: A1, A2, A03, A05, A06, A07, A08, A09, A10, A11, A12, A13, A14, A15, A16, A17, A18, A19, A20, A21, A22, A25, A26, A27, A31, A32, A34, A37, A39, A40, A42, A44, A45, A46, A47, A48, A49, A50, A51, A52, A53, B1**.

Plutella xylostella = Plutella xylostella (diamond back moth) artificial diet MTP test; settings: 144 h, 200 ppm (concentration in well 18 ppm), L2 larvae, larval mortality and growth regulation after 6 days
Method: Plutella xylostella (Diamond Back Moth): 24-well microtiter plate (MTP) with artificial diet was treated with test solutions at an application rate of 200 ppm (concentration in well 18 ppm) by pipetting. After drying, the MTPs were infested with L2 larvae (7-12 per well). After an incubation period of 6 days, samples were checked for larval mortality and growth regulation.

Diabrotica balteata = Diabrotica balteata (corn root worm) artificial diet MTP test; settings: 120 h, 200 ppm (concentration in well 18 ppm), L2 larvae, larval mortality and growth regulation after 5 days
Method: Diabrotica balteata (Corn Root Worm): A 24-well microtiter plate (MTP) with artificial diet was treated with test solutions at an application rate of 200 ppm (concentration in well 18 ppm) by pipetting. After drying, the MTPs were infested with L2 larvae (6-10 per well). After an incubation period of 5 days, samples were checked for larval mortality and growth regulation.

Tetranychus urticae = Tetranychus urticae (two-spotted spider mite) bean leaf disc spray test; settings: foliar, 192 h, 200 ppm spray on bean leaf discs, mite populations of mixed ages, egg, larval and adult mortality 8 days later
Description: Tetranychus urticae (Two-Spotted Spider Mite): Bean leaf discs on agar in 24-well microtiter plates were sprayed with test solutions at an application rate of 200 ppm. After drying, the leaf discs are infested with mite populations of mixed ages. 8 days later, discs are checked for egg mortality, larval mortality, and adult mortality.

Measured: pest or weed control at 200 ppm

O=C(NCc1ccc(C2=COC(c3cc(Cl)cc(Cl)c3)(C(F)(F)F)C2)cc1Cl)C1CCCO1 (stereo not drawn) [Compound A07, N-[[2-chloro-4-[2-(3,5-dichlorophenyl)-2-(trifluoromethyl)-3H-furan-4-yl]phenyl]methyl]tetrahydrofuran-2-carboxamide]
≥ 80%: all assays above

O=C(CCN1C(=O)c2ccccc2C1=O)NCc1ccc(C2=COC(c3cc(Cl)cc(Cl)c3)(C(F)(F)F)C2)cc1Cl (stereo not drawn) [Compound A22, N-[[2-chloro-4-[2-(3,5-dichlorophenyl)-2-(trifluoromethyl)-3H-furan-4-yl]phenyl]methyl]-3-(1,3-dioxoisoindolin-2-yl)propanamide]
not listed: Tetranychus urticae
≥ 80%: all other assays above

CSCC(=O)NCc1ccc(C2=COC(c3cc(Cl)cc(Cl)c3)(C(F)(F)F)C2)cc1Cl (stereo not drawn) [Compound A1, N-[[2-chloro-4-[2-(3,5-dichlorophenyl)-2-(trifluoromethyl)-3H-furan-4-yl]phenyl]methyl]-2-methylsulfanyl-acetamide]
≥ 80%: all assays above

CCC(Cl)C(=O)NCc1ccc(C2=COC(c3cc(Cl)cc(Cl)c3)(C(F)(F)F)C2)cc1Cl (stereo not drawn) [Compound A47, 2-chloro-N-[[2-chloro-4-[2-(3,5-dichlorophenyl)-2-(trifluoromethyl)-3H-furan-4-yl]phenyl]methyl]butanamide]
not listed: Tetranychus urticae
≥ 80%: all other assays above

O=C(COCc1ccccc1)NCc1ccc(C2=COC(c3cc(Cl)cc(Cl)c3)(C(F)(F)F)C2)cc1Cl (stereo not drawn) [Compound A08, 2-benzyloxy-N-[[2-chloro-4-[2-(3,5-dichlorophenyl)-2-(trifluoromethyl)-3H-furan-4-yl]phenyl]methyl]acetamide]
≥ 80%: Spodoptera littoralis | Heliothis virescens | Tetranychus urticae

Cc1cccnc1C(=O)NCc1ccc(C2=COC(c3cc(Cl)cc(Cl)c3)(C(F)(F)F)C2)cc1Cl (stereo not drawn) [Compound A39, N-[[2-chloro-4-[2-(3,5-dichlorophenyl)-2-(trifluoromethyl)-3H-furan-4-yl]phenyl]methyl]-3-methyl-pyridine-2-carboxamide]
not listed: Tetranychus urticae
≥ 80%: all other assays above

COc1ccc(C(=O)NCc2ccc(C3=COC(c4cc(Cl)cc(Cl)c4)(C(F)(F)F)C3)cc2Cl)cc1 (stereo not drawn) [Compound A26, N-[[2-chloro-4-[2-(3,5-dichlorophenyl)-2-(trifluoromethyl)-3H-furan-4-yl]phenyl]methyl]-4-methoxy-benzamide]
not listed: Tetranychus urticae
≥ 80%: all other assays above

Cn1nc(C(=O)NCc2ccc(C3=COC(c4cc(Cl)cc(Cl)c4)(C(F)(F)F)C3)cc2Cl)sc1=O (stereo not drawn) [Compound A50, N-[[2-chloro-4-[2-(3,5-dichlorophenyl)-2-(trifluoromethyl)-3H-furan-4-yl]phenyl]methyl]-4-methyl-5-oxo-1,3,4-thiadiazole-2-carboxamide]
not listed: Tetranychus urticae
≥ 80%: all other assays above

O=C(COc1ccccc1)NCc1ccc(C2=COC(c3cc(Cl)cc(Cl)c3)(C(F)(F)F)C2)cc1Cl (stereo not drawn) [Compound A19, N-[[2-chloro-4-[2-(3,5-dichlorophenyl)-2-(trifluoromethyl)-3H-furan-4-yl]phenyl]methyl]-2-phenoxy-acetamide]
not listed: Spodoptera littoralis
≥ 80%: all other assays above

CCSC(SCC)C(=O)NCc1ccc(C2=COC(c3cc(Cl)cc(Cl)c3)(C(F)(F)F)C2)cc1Cl (stereo not drawn) [Compound A53, N-[[2-chloro-4-[2-(3,5-dichlorophenyl)-2-(trifluoromethyl)-3H-furan-4-yl]phenyl]methyl]-2,2-bis(ethylsulfanyl)acetamide]
not listed: Tetranychus urticae
≥ 80%: all other assays above

CC1CCCCC1C(=O)NCc1ccc(C2=COC(c3cc(Cl)cc(Cl)c3)(C(F)(F)F)C2)cc1Cl (stereo not drawn) [Compound A11, N-[[2-chloro-4-[2-(3,5-dichlorophenyl)-2-(trifluoromethyl)-3H-furan-4-yl]phenyl]methyl]-2-methyl-cyclohexanecarboxamide]
≥ 80%: Heliothis virescens | Plutella xylostella | Tetranychus urticae

O=C(NCc1ccc(C2=COC(c3cc(Cl)cc(Cl)c3)(C(F)(F)F)C2)cc1Cl)c1cccs1 (stereo not drawn) [Compound A44, N-[[2-chloro-4-[2-(3,5-dichlorophenyl)-2-(trifluoromethyl)-3H-furan-4-yl]phenyl]methyl]thiophene-2-carboxamide]
not listed: Tetranychus urticae
≥ 80%: all other assays above

O=C(Cc1ccccc1)NCc1ccc(C2=COC(c3cc(Cl)cc(Cl)c3)(C(F)(F)F)C2)cc1Cl (stereo not drawn) [Compound A14, N-[[2-chloro-4-[2-(3,5-dichlorophenyl)-2-(trifluoromethyl)-3H-furan-4-yl]phenyl]methyl]-2-phenyl-acetamide]
not listed: Diabrotica balteata
≥ 80%: all other assays above

O=C(NCc1ccc(C2=COC(c3cc(Cl)cc(Cl)c3)(C(F)(F)F)C2)cc1Cl)c1cccc(F)c1F (stereo not drawn) [Compound A20, N-[[2-chloro-4-[2-(3,5-dichlorophenyl)-2-(trifluoromethyl)-3H-furan-4-yl]phenyl]methyl]-2,3-difluoro-benzamide]
not listed: Tetranychus urticae
≥ 80%: all other assays above

O=C(Cc1cccs1)NCc1ccc(C2=COC(c3cc(Cl)cc(Cl)c3)(C(F)(F)F)C2)cc1Cl (stereo not drawn) [Compound A18, N-[[2-chloro-4-[2-(3,5-dichlorophenyl)-2-(trifluoromethyl)-3H-furan-4-yl]phenyl]methyl]-2-(2-thienyl)acetamide]
not listed: Diabrotica balteata
≥ 80%: all other assays above

Cc1cc2ncc(C(=O)NCc3ccc(C4=COC(c5cc(Cl)cc(Cl)c5)(C(F)(F)F)C4)cc3Cl)c(C)n2n1 (stereo not drawn) [Compound A40, N-[[2-chloro-4-[2-(3,5-dichlorophenyl)-2-(trifluoromethyl)-3H-furan-4-yl]phenyl]methyl]-2,7-dimethyl-pyrazolo[1,5-a]pyrimidine-6-carboxamide]
≥ 80%: Heliothis virescens | Plutella xylostella | Tetranychus urticae

Source: patent publication US20140235533A1, “DIHYDROFURAN DERIVATIVES AS INSECTICIDAL COMPOUNDS” (SYNGENTA PARTICIPATIONS AG, priority 2011, published 2014)
